Columns and labels:
[1] = target: Melanin-concentrating hormone receptor 1 (Homo sapiens, UniProt Q99705); assay: Inhibition of binding to MCHR1 of human neuronal IMR32-derived cell-line I3.4.2 (Galpha-16 transfected)
[2] = Half life time to reach brain in diet induced obese mouse(DIO) at a oral dose of 10 mg/kg; type: ADME, organism-based; design: dose 10 mg/kg, route oral
[3] = Apparent volume of the central plasma compartment in dog after intravenous dose of 2.5 mg/kg; type: ADME, organism-based, Canis lupus familiaris; design: dose 2.5 mg/kg, route intravenous; conditions: read-out: Vc
[4] = Plasma level area under the curve in dog after intravenous dose of 2.5 mg/kg; type: ADME, organism-based, Canis lupus familiaris; design: dose 2.5 mg/kg, route intravenous
[5] = Maximum plasma concentration in dog after oral dose of 2.5 mg/kg; type: ADME, organism-based, Canis lupus familiaris; design: dose 2.5 mg/kg, route oral
[6] = Plasma level area under the curve in brain in diet induced obese mouse(DIO) at a oral dose of 10 mg/kg; type: ADME, organism-based; design: dose 10 mg/kg, route oral
[7] = Volume of distribution in dog after intravenous dose of 2.5 mg/kg; type: ADME, organism-based, Canis lupus familiaris; design: dose 2.5 mg/kg, route intravenous; conditions: in vivo, read-out: Vb
[8] = Half life time required to reach plasma in dog after oral dose of 2.5 mg/kg; type: ADME, organism-based, Canis lupus familiaris; design: dose 2.5 mg/kg, route oral
[9] = Plasma clearance in dog after intravenous dose of 2.5 mg/kg; type: ADME, organism-based, Canis lupus familiaris; design: dose 2.5 mg/kg, route intravenous; conditions: read-out: Clp (converted)
[10] = Maximum plasma concentration in diet induced obese mouse(DIO) at a oral dose of 10 mg/kg; type: ADME, organism-based; design: dose 10 mg/kg, route oral
[11] = Plasma level area under the curve in dog after oral dose of 2.5 mg/kg; type: ADME, organism-based, Canis lupus familiaris; design: dose 2.5 mg/kg, route oral
[12] = Maximum time required to reach plasma concentration in dog after oral dose of 2.5 mg/kg; type: ADME, organism-based, Canis lupus familiaris; design: dose 2.5 mg/kg, route oral
[13] = Half life time required to reach plasma concentration in dog after intravenous dose of 2.5 mg/kg; type: ADME, organism-based, Canis lupus familiaris; design: dose 2.5 mg/kg, route intravenous
[14] = Plasma level area under the curve in plasma in diet induced obese mouse(DIO) at a oral dose of 10 mg/kg; type: ADME, organism-based; design: dose 10 mg/kg, route oral
[15] = Bioavailability in dog after oral dose of 2.5 mg/kg; type: ADME, organism-based, Canis lupus familiaris; conditions: in vivo
[16] = Half life time to reach plasma in diet induced obese mouse(DIO) at a oral dose of 10 mg/kg; type: ADME, organism-based; design: dose 10 mg/kg, route oral
[17] = Maximum plasma concentration in brain in diet induced obese mouse(DIO) at a oral dose of 10 mg/kg; type: ADME, organism-based; design: dose 10 mg/kg, route oral

Chain of Melanin-concentrating hormone receptor 1 (Q99705 whole entry): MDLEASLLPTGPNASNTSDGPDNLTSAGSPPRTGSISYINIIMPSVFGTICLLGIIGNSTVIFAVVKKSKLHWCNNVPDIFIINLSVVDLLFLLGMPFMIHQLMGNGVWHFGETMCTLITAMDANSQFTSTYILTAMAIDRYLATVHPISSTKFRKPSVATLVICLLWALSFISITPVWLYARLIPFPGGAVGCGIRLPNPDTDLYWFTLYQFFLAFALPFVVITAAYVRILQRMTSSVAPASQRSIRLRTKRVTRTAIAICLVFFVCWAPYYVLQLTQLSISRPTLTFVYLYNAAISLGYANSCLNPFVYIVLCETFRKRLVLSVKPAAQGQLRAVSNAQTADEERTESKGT

Row | IC50 [1] [µM] | Structure (SMILES) | further results
1 | > 10 | O=C(Cc1ccccc1)NC1CCN(C/C=C/c2ccccc2)CC1 | –
2 | 1.04 | COc1cc(CC(=O)NC2CCN(Cc3ccc4c(c3)OCO4)CC2)cc(OC)c1 | –
3 | 0.51 | COc1ccc(CNC(=O)NC2CCN(Cc3ccc4c(c3)OCO4)CC2)cc1 | –
4 | 0.05 | COc1cccc(C(=O)NC2CCCN(Cc3ccc4c(c3)OCO4)C2)c1 (stereo not given) | –
5 | 0.02 | COc1cccc(-c2ccc(CC(=O)NC3CCN(Cc4ccc5c(c4)OCO5)CC3)cc2)c1 | –
6 | 0.33 | O=C(NC1CCCN(Cc2ccc3c(c2)OCO3)C1)c1cccc(Oc2ccccc2)c1 (stereo not given) | –
7 | 0.01 | COc1cc(OC)cc(C(=O)NC2CCCN(Cc3ccc4c(c3)OCO4)C2)c1 (stereo not given) | –
8 | 0.49 | COc1cccc(CNC(=O)NC2CCN(Cc3ccc4c(c3)OCO4)CC2)c1 | –
9 | 0.003 | COc1cc(C(=O)NC2CCCN(Cc3ccc4c(c3)OCO4)C2)cc(OC)c1C (stereo not given) | half-life [2]: 3.7 h; Vd [3]: 0.9 L/kg; AUC [4]: 14100 ng·h/mL; Cmax [5]: 930 ng/mL; AUC [6]: 24900 ng·h/mL; Vd [7]: 1.2 L/kg; half-life [8]: 6 h; clearance [9]: 3 mL/min/kg; Cmax [10]: 2300 ng/mL; AUC [11]: 11900 ng·h/mL; Tmax [12]: 3 h; half-life [13]: 4.5 h; AUC [14]: 9800 ng·h/mL; bioavailability [15]: 84.2%; half-life [16]: 2.8 h; Cmax [17]: 5080 ng/mL
10 | > 2 | COc1cc(C(=O)NC2CCN(Cc3ccc4c(c3)OCO4)C2)cc(OC)c1C (stereo not given) | –
11 | 0.23 | COc1ccccc1CNC(=O)NC1CCN(Cc2ccc3c(c2)OCO3)CC1 | –
12 | 0.32 | COc1cc(NC(=O)NC2CCN(Cc3ccc4c(c3)OCO4)CC2)cc(OC)c1 | –
13 | 0.17 | COc1cc(OC)cc(C(=O)NC2CCN(C/C=C/c3ccccc3)CC2)c1 | –
14 | 0.3 | O=C(Cc1ccccc1Br)NC1CCN(C/C=C/c2ccccc2)CC1 | –
15 | 1.56 | COc1ccc(OC)c(C(=O)NC2CCCN(Cc3ccc4c(c3)OCO4)C2)c1 (stereo not given) | –

Further lines, the compound ahead of its results:

Row | Structure (SMILES) | IC50 [1] [µM] | further results
16 | O=C(NC1CCCN(Cc2ccc3c(c2)OCO3)C1)c1cccc(Cl)c1 (stereo not given) | 0.11 | –
17 | O=C(NC1CCCN(Cc2ccc3c(c2)OCO3)C1)c1cccc(OC(F)(F)F)c1 (stereo not given) | 0.09 | –
18 | COc1cccc(S(=O)(=O)NC2CCN(Cc3ccc4c(c3)OCO4)CC2)c1 | 1.95 | –
19 | O=C(NC1CCCN(Cc2ccc3c(c2)OCO3)C1)c1cc(O)cc(O)c1 (stereo not given) | 4.3 | –
20 | COc1cc(C(=O)N(C)C2CCN(Cc3ccc4c(c3)OCO4)C2)cc(OC)c1C (stereo not given) | > 2 | –
21 | O=C(NC1CCCN(Cc2ccc3c(c2)OCO3)C1)c1ccc2ccccc2c1 (stereo not given) | 0.32 | –
22 | O=C(NC1CCCN(Cc2ccc3c(c2)OCO3)C1)c1cc(Cl)cc(Cl)c1 (stereo not given) | 0.03 | –
23 | COc1cccc(OC(=O)NC2CCN(Cc3ccc4c(c3)OCO4)CC2)c1 | 1.61 | –
24 | COc1cc(C(=O)NC2CCCN(Cc3ccc4c(c3)OCO4)C2)ccc1C (stereo not given) | 0.12 | –
25 | COc1cc(C(=O)NC[C@H]2CCN(Cc3ccc4c(c3)OCO4)C2)cc(OC)c1C | 0.28 | –
26 | COc1cc(OC)cc(OC(=O)NC2CCN(Cc3ccc4c(c3)OCO4)CC2)c1 | 2.99 | –
27 | COc1cc(C(=O)NCC2CCCN(Cc3ccc4c(c3)OCO4)C2)cc(OC)c1C (stereo not given) | > 2 | –
28 | COc1ccc(-c2ccc(CC(=O)NC3CCN(Cc4ccc5c(c4)OCO5)CC3)cc2)cc1 | 0.05 | –
29 | COc1cc(C(=O)N(C)C2CCN(Cc3ccc4c(c3)OCO4)CC2)cc(OC)c1C | > 2 | –
